These are literature values, as cited in patent US20050171206A1, “Therapeutical use” (priority 2004, published 2005).

One data set concerns SMN2 genes. The note with it: in vitro, cell cultures; cited from earlier work.
Another data set deals with SMA patients. The note with it: published clinical trials; cited from earlier work.

Molecules are shown by their SMILES.

Turning to `O=C(O)CCCc1ccccc1` [PBA, 4-phenylbutyric acid], in the data set with SMN2 genes, the SMN protein levels result is listed as “effective in enhancing SMN protein levels”, the “expression of the SMN2 genes” value is reported as “effective in increasing the expression of the SMN2 genes” and the “number of SMN containing nuclear structures” value was “effective in enhancing”.

`CC(C)(C)NCC(O)c1ccc(O)c(CO)c1` (stereo not shown) [albuterol]: the “clinical outcome in SMA patients” value with SMA patients is “improvement in clinical symptoms”. With `NCC1(CC(=O)O)CCCCC1` [gabapentin], the “clinical outcome in SMA patients” value with SMA patients was “did not show improvement of the symptoms”. `Nc1nc2ccc(OC(F)(F)F)cc2s1` [riluzole]: the “clinical outcome in SMA patients” value in the data set on SMA patients is “no statistically significant improvement”. For `CCCC(=O)[O-].[Na+]` [sodium butyrate], the “expression of the SMN2 genes” value with SMN2 genes is reported as “can increase SMN2 gene expression in vitro”.
